# Measurements reported in patent publication US12208093B2 (THE JOHNS HOPKINS UNIVERSITY, priority 2016, dated 2025).
# Key:
# [1] = test system: pp28-luciferase HCMV Towne; assay: microbe, parasite or virus in culture; assay type: cell-based, human cytomegalovirus (HCMV); conditions: HFFs 0.5-2 million cells/plate; emetine 75 nM, GCV 5 μM
# Text: A GCV-resistant pp28-luciferase HCMV strain, with a C607Y mutation in UL97 was also used. The recombinant viruses express luciferase under the control of the late CMV gene promoter, pp28. […] The recombinant viruses provide a highly-sensitive and reproducible reporter system which correlates with the classic plaque reduction assay. […] Human herpes virus strains were: luciferase HSV1-KOS/Dlux/oriS and clinical isolates of HSV2.
# Cell culture, virus infection and anti-viral assays. […] Infection with HCMV or HSV was performed in HFFs, and infection with mouse CMV was performed in MEFs. For HCMV, cells were seeded in either a 96-well plate or 100 mm culture plates (Corning Costar, Sigma Aldrich) at 0.5 or 2 million cells/plate. Following 90 minute adsorption, media was removed and cells were washed with PBS. Media containing 4% FBS and compounds were added to each well. Infected treated HFFs were collected at 72 hpi and lysates were assayed for luciferase activity using a luciferase assay kit (Promega, Madison, WI) on GloMax®-Multi+Detection System (Promega). In second cycle assays, supernatants were collected from all conditions of the first cycle at 96 hpi and used for infection of fresh HFFs in 96-well-plates. […] For HSV1-KOS/Dlux/oriS, a luciferase assay was performed at 24 hpi. Plaque assays were performed with clinical isolates of HSV2 and HCMV Towne. […] Following virus adsorption (60 min and 90 min for HSV and HCMV, respectively), virus was aspirated, and DMEM containing 4% fetal bovine serum (FBS) with (for HSV) or without (for HCMV) 0.5% carboxymethyl-cellulose, were added with the compounds at indicated concentrations into triplicate wells. After incubation at 37° C. for 10 days (for HCMV) or 2 days (for HSV), the overlay was removed and plaques were counted after crystal violet staining.
# [2] = test system: HCMV entry; assay: Virus entry immunofluorescence assay for pp65; assay type: cell-based; conditions: emetine 75 nM, GCV 10 μM, CpG 2006 10 μM; added 24 h prior to infection
# Method: Immunofluorescence. […] Compounds were diluted in serum-free medium and added to HFFs seeded on chamber slides 24 h prior to infection. After infection and treatment, cells were fixed, permeabilized, and air-dried. Cells were then incubated with mouse monoclonal anti-pp65 antibody at 37° C. in humidified chambers for 1 h, washed three times with 0.1% Tween 20 in PBS (PBST), incubated with rhodamine conjugated anti-mouse IgG (Sigma Chemical Co) at 37° C. in humidified chambers for 1 h, and washed with PBST (0.1% Tween 20). A drop of mount oil containing DAPI (4,6-diamidino-2-phenylindole) (Santa Cruz) was added to the slides before visualization with a Nikon Eclipse E-800 fluorescence microscope.
# [3] = test system: MDM2-IE2 interaction; assay: Co-immunoprecipitation of MDM2 and IE2 in transfected HEK293 cells; assay type: cell-based; conditions: HEK293 cells transfected with IE1/2; emetine 75 nM or GCV 5 μM, 4 h
# Method: Transient transfections. HEK-293 cells seeded into 10 cm petri dishes were transfected with HCMV plasmid encoding IE1 and IE2 (pRL45) plasmid, 1 μg/dish, using Lipofectamine 2000 in serum free medium. After 6 h, 10% FBS containing media was added along with 10 μM of MG132. […] Cells were then harvested to prepare lysates for IP.
# Co-immunoprecipitation (IP) and immunoblotting. Non-infected, infected or emetine-treated HFFs were treated with MG132 (10 μM) for 12 h. Cells were harvested after 24 hpi and lysed with IP buffer containing 150 mM NaCl, 50 mM Tris pH 7.5, 2 mM EDTA, 0.5% TritonX-100 and 0.5% NP-40-40. 1 mg of lysate was precleared with bead slurry for 30 min. The precleared lysates were incubated with anti-MDM2 (2 μg) antibody overnight. The antibody complexes were isolated using protein A/G beads (Santa Cruz), washed three times with 50% IP buffer. The immunoprecipitate—protein A/G beads were boiled in SDS sample buffer, and the supernatant was analyzed on SDS-PAGE gels after immunoblotting as described previously. […] Reverse IPs were performed by pulling down the precleared lysates with either anti-p53 antibody or anti-RPS14 antibody and detected with MDM2. […] In other experiments, transfected or treated HEK293 cell lysates were pulled-down with anti-IE2 antibody and detected with anti-MDM2 antibody and vice-versa for reverse IP.
# [4] = test system: HCMV; assay: Generation of drug resistant virus; assay type: cell-based, human cytomegalovirus (HCMV); conditions: 5 passages, two fold increases of concentration
# Method: Generation of drug resistant virus. Screening of drug resistant virus was performed as reported. Two million cells were plated on a 6-well plate and infected with HCMV (MOI 0.05). […] The cells were maintained in DMEM with 4% FBS until plaques were observed. The supernatants from these plates were used to infect fresh HFFs in a 6-well plate and each time drug concentration was increased by two fold. […] DNA extracted from supernatants collected at the last stage was used for UL97 sequencing.
smiles,measurement,setting,value
"Nc1nc(O)c2ncn(COC(CO)CO)c2n1 [GCV, Ganciclovir]",HCMV inhibition in relation to cell density at time of infection,[1],inhibited HCMV replication irrespective of cell density
same,inhibition of viral entry,[2],neither emetine nor GCV inhibited viral entry
same,interaction of MDM2 and IE2,[3],no effect
same,selection of resistant virus with increasing drug concentration,[4],did select for resistant mutants
